Measured values published in patent US20100298141A1, “SUBSTITUTED PYRIDINE N-OXIDE HERBICIDES” (E. I. DU PONT DE NEMOURS AND COMPANY, priority 2007, published 2010).

Key:
[1] = test system: wheat; test: Test A pre-/postemergence greenhouse test; assay type: in vivo, Triticum aestivum; settings: for Plant response rating, Wheat: 0 to 100 scale where 0 is no effect and 100 is complete control; for Wheat plant response rating: 0 to 100 scale
Procedure, shortened: (§1)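 Untreated controls served as the reference for visual injury ratings taken about ten days after spraying. The non-phytotoxic solvent/surfactant formulation was applied preemergence to seeded loam and sand and postemergence to plants two to ten cm high.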

[2] = test system: barnyardgrass; test: Test C flooded paddy test; assay type: in vivo, Echinochloa crus-galli; settings: Flood
Procedure, shortened: (§2)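 Greenhouse pots flooded to 3 cm above soil at time of treatment received compound via the water, which stayed at that level.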

[3] = test system: corn; test: Test A pre-/postemergence greenhouse test; assay type: in vivo, Zea mays; settings: for Plant response rating, Corn: 0 to 100 scale where 0 is no effect and 100 is complete control; for Corn plant response rating: 0 to 100 scale
Procedure, shortened: as §1

[4] = test system: crabgrass; test: Test A pre-/postemergence greenhouse test; assay type: in vivo, Digitaria sanguinalis; settings: for Plant response rating, Crabgrass, Large: 0 to 100 scale where 0 is no effect and 100 is complete control; for Crabgrass, Large plant response rating: 0 to 100 scale
Procedure, shortened: as §1

[5] = test system: redroot pigweed; test: Test A pre-/postemergence greenhouse test; assay type: in vivo, Amaranthus retroflexus; settings: for Plant response rating, Pigweed: 0 to 100 scale where 0 is no effect and 100 is complete control; for Pigweed plant response rating: 0 to 100 scale
Procedure, shortened: as §1

[6] = test system: velvetleaf; test: Test A pre-/postemergence greenhouse test; assay type: in vivo, Abutilon theophrasti; settings: for Plant response rating, Velvetleaf: 0 to 100 scale where 0 is no effect and 100 is complete control; for Velvetleaf plant response rating: 0 to 100 scale
Procedure, shortened: as §1

[7] = test system: morningglory; test: Test A pre-/postemergence greenhouse test; assay type: in vivo, Ipomoea spp.; settings: for Plant response rating, Morningglory: 0 to 100 scale where 0 is no effect and 100 is complete control; for Morningglory plant response rating: 0 to 100 scale
Procedure, shortened: as §1

[8] = test system: giant foxtail; test: Test A pre-/postemergence greenhouse test; assay type: in vivo, Setaria faberi; settings: for Plant response rating, Foxtail, Giant: 0 to 100 scale where 0 is no effect and 100 is complete control; for Foxtail, Giant plant response rating: 0 to 100 scale
Procedure, shortened: as §1

[9] = test system: umbrella sedge; test: Test C flooded paddy test; assay type: in vivo, Cyperus difformis; settings: Flood
Procedure, shortened: as §2

[10] = test system: duck salad; test: Test C flooded paddy test; assay type: in vivo, Heteranthera limosa; settings: Flood
Procedure, shortened: as §2

[11] = test system: rice; test: Test C flooded paddy test; assay type: in vivo, Oryza sativa; settings: Flood
Procedure, shortened: as §2

[12] = test system: barnyardgrass; test: Test A pre-/postemergence greenhouse test; assay type: in vivo, Echinochloa crus-galli; settings: for Plant response rating, Barnyardgrass: 0 to 100 scale where 0 is no effect and 100 is complete control; for Barnyardgrass plant response rating: 0 to 100 scale
Procedure, shortened: as §1

[13] = Postemergence, 500 g ai/ha, 0 is no effect, 100 is complete control
[14] = Preemergence, 125 g ai/ha, 0 no effect, 100 complete control
[15] = 31 g ai/ha, scale 0 to 100 (0 no effect, 100 complete control)
[16] = 62 g ai/ha, scale 0 to 100, 0 no effect, 100 complete control, 13 to 15 days
[17] = 125 g ai/ha, scale 0 to 100, 0 no effect, 100 complete control, 13 to 15 days
[18] = 250 g ai/ha, scale 0 to 100, 0 no effect, 100 complete control, 13 to 15 days
[19] = Preemergence, 500 g ai/ha, 0 no effect, 100 complete control
[20] = 62 g ai/ha, scale 0 to 100 (0 no effect, 100 complete control)

In the case of `Cc1cc[n+]([O-])c(S(=O)(=O)C(Cl)c2c(C(F)(F)F)nn(CC(F)(F)F)c2Cl)c1` (stereo not shown) [Compound 56], the “Plant response rating, Wheat” value ([1]; Postemergence, 125 g ai/ha) is reported as 0, the “Wheat plant response rating” value [1, 13] is reported as 0 and the “Wheat plant response rating” value [1, 14] is reported as 0. The “Plant response rating, Wheat” value ([1]; Preemergence, 500 g ai/ha) was 0, the “Plant response rating, Barnyardgrass” value [2, 15] was 0 and the “Plant response rating, Barnyardgrass” value [2, 16] was 0. For the same compound, the “Plant response rating, Barnyardgrass” value [2, 17] was 0, the “Plant response rating, Barnyardgrass” value [2, 18] was 20 and the “Plant response rating, Corn” value ([3]; Postemergence, 125 g ai/ha) was 0. The “Corn plant response rating” value [3, 13] was 0, the “Corn plant response rating” value [3, 14] was 0 and the “Plant response rating, Corn” value ([3]; Preemergence, 500 g ai/ha) was 0. For the same compound, the “Plant response rating, Crabgrass, Large” value ([4]; Postemergence, 125 g ai/ha) was 0, the “Crabgrass, Large plant response rating” value [4, 13] was 50 and the “Crabgrass, Large plant response rating” value [4, 14] was 20. For the same compound, the “Plant response rating, Crabgrass, Large” value ([4]; Preemergence, 500 g ai/ha) was 80, the “Plant response rating, Pigweed” value ([5]; Postemergence, 125 g ai/ha) was 0 and the “Pigweed plant response rating” value [5, 13] was 20. The “Plant response rating, Pigweed” value ([5]; Preemergence, 500 g ai/ha) was 100, the “Plant response rating, Velvetleaf” value ([6]; Postemergence, 125 g ai/ha) was 0 and the “Velvetleaf plant response rating” value [6, 13] was 0. For the same compound, the “Velvetleaf plant response rating” value [6, 14] was 0, the “Plant response rating, Velvetleaf” value ([6]; Preemergence, 500 g ai/ha) was 40 and the “Plant response rating, Morningglory” value ([7]; Postemergence, 125 g ai/ha) was 0. The “Morningglory plant response rating” value [7, 13] was 10, the “Morningglory plant response rating” value [7, 14] was 0 and the “Plant response rating, Morningglory” value ([7]; Preemergence, 500 g ai/ha) was 0. The “Plant response rating, Foxtail, Giant” value ([8]; Postemergence, 125 g ai/ha) was 0, the “Foxtail, Giant plant response rating” value [8, 13] was 50 and the “Foxtail, Giant plant response rating” value [8, 14] was 30. For the same compound, the “Plant response rating, Foxtail, Giant” value ([8]; Preemergence, 500 g ai/ha) was 90, the “Plant response rating, Sedge, Umbrella” value [9, 15] was 0 and the “Plant response rating, Sedge, Umbrella” value [9, 17] was 45. For the same compound, the “Plant response rating, Sedge, Umbrella” value [9, 18] was 55, the “Plant response rating, Ducksalad” value [10, 15] was 0 and the “Plant response rating, Ducksalad” value [10, 16] was 40. For the same compound, the “Plant response rating, Ducksalad” value [10, 17] was 85, the “Plant response rating, Ducksalad” value [10, 18] was 100 and the “Plant response rating, Rice” value [11, 15] was 0. The “Plant response rating, Rice” value [11, 16] was 0, the “Plant response rating, Rice” value [11, 17] was 0 and the “Plant response rating, Rice” value [11, 18] was 0. For the same compound, the “Plant response rating, Barnyardgrass” value ([12]; Postemergence, 125 g ai/ha) was 0, the “Barnyardgrass plant response rating” value [12, 13] was 50 and the “Barnyardgrass plant response rating” value [12, 14] was 0. The “Plant response rating, Barnyardgrass” value ([12]; Preemergence, 500 g ai/ha) was 70.

With `CC(C)c1cc[n+]([O-])c(S(=O)(=O)Cc2c(C(F)(F)F)nn(C)c2OC(F)F)c1` [Compound 110] the “Plant response rating, Wheat” value ([1]; Postemergence, 125 g ai/ha) was 20, the “Wheat plant response rating” value [1, 13] was 60 and the “Wheat plant response rating” value [1, 14] was 30. For the same compound, the “Wheat plant response rating” value [1, 19] was 70, the “Plant response rating, Barnyardgrass” value [2, 15] was 0 and the “Plant response rating, Barnyardgrass” value [2, 20] was 0. For the same compound, the “Plant response rating, Barnyardgrass” value [2, 17] was 0, the “Plant response rating, Barnyardgrass” value [2, 18] was 0 and the “Plant response rating, Corn” value ([3]; Postemergence, 125 g ai/ha) was 0. For the same compound, the “Corn plant response rating” value [3, 13] was 60, the “Corn plant response rating” value [3, 14] was 0 and the “Corn plant response rating” value [3, 19] was 60. The “Plant response rating, Crabgrass, Large” value ([4]; Postemergence, 125 g ai/ha) was 70, the “Crabgrass, Large plant response rating” value [4, 13] was 90 and the “Crabgrass, Large plant response rating” value [4, 14] was 50. For the same compound, the “Crabgrass, Large plant response rating” value [4, 19] was 100, the “Plant response rating, Pigweed” value ([5]; Postemergence, 125 g ai/ha) was 70 and the “Pigweed plant response rating” value [5, 13] was 80. The “Pigweed plant response rating” value [5, 14] was 80, the “Pigweed plant response rating” value [5, 19] was 100 and the “Plant response rating, Velvetleaf” value ([6]; Postemergence, 125 g ai/ha) was 60. The “Velvetleaf plant response rating” value [6, 13] was 80, the “Velvetleaf plant response rating” value [6, 14] was 50 and the “Velvetleaf plant response rating” value [6, 19] was 100. For the same compound, the “Plant response rating, Morningglory” value ([7]; Postemergence, 125 g ai/ha) was 40, the “Morningglory plant response rating” value [7, 13] was 100 and the “Morningglory plant response rating” value [7, 14] was 60. The “Morningglory plant response rating” value [7, 19] was 100, the “Plant response rating, Foxtail, Giant” value ([8]; Postemergence, 125 g ai/ha) was 80 and the “Foxtail, Giant plant response rating” value [8, 13] was 90. For the same compound, the “Foxtail, Giant plant response rating” value [8, 14] was 80, the “Foxtail, Giant plant response rating” value [8, 19] was 100 and the “Plant response rating, Sedge, Umbrella” value [9, 15] was 0. The “Plant response rating, Sedge, Umbrella” value [9, 20] was 0, the “Plant response rating, Sedge, Umbrella” value [9, 17] was 0 and the “Plant response rating, Sedge, Umbrella” value [9, 18] was 30. The “Plant response rating, Ducksalad” value [10, 15] was 0, the “Plant response rating, Ducksalad” value [10, 20] was 0 and the “Plant response rating, Ducksalad” value [10, 17] was 50. For the same compound, the “Plant response rating, Ducksalad” value [10, 18] was 75, the “Plant response rating, Rice” value [11, 15] was 0 and the “Plant response rating, Rice” value [11, 20] was 0. The “Plant response rating, Rice” value [11, 17] was 0, the “Plant response rating, Rice” value [11, 18] was 0 and the “Plant response rating, Barnyardgrass” value ([12]; Postemergence, 125 g ai/ha) was 60. For the same compound, the “Barnyardgrass plant response rating” value [12, 13] was 80, the “Barnyardgrass plant response rating” value [12, 14] was 90 and the “Barnyardgrass plant response rating” value [12, 19] was 100.
